Data set [1] deals with VLA-4–positive B16F10 mouse melanoma cells. The data set can be described thus: Cellular uptake assay, VLA-4-positive B16F10 cells. The data set is classed as cell-based. The conditions noted are these: 60 min, 37°C, P < 0.05.
For data set [2], the system named is VLA-4–negative MDA-MB-231/fluc human breast cancer tumor cells. The data set can be described thus: Cellular uptake assay, VLA-4-negative MDA-MB-231/fluc cells. Format: cell-based. The conditions noted are these: coincubation with 1 μM nonradioactive ligand, 60 min, 37°C; P = 0.3.
The subject of data set [3] is Raji lymphoma mouse model. As to conditions: in vivo; cited from earlier work.

For the substance “^64Cu-labeled 11-bis(carboxymethyl)-1,4,8,11-tetraazabicyclo[6.6.2] hexadecane (CB-TE2A)-LLP2A [^64Cu-CB-TE2A-LLP2A]”, the “cellular uptake (sum of internalized and cell surface-bound fractions) in B16F10 cells relative to MDA-MB-231 cells” value in data set [1] (1 nM tracer, cpm/mg protein) was “higher”. In addition, the “blocking of cellular uptake with cold LLP2A in B16F10 cells” value in data set [1] (coincubation with 1 μM nonradioactive ligand) is “blocking with cold LLP2A was observed”. Also, the “blocking of cellular uptake with cold LLP2A in MDA-MB-231/fluc cells” value in data set [2] was “no significant blocking”. Besides, in data set [3], the “tracer uptake in tissues of Raji lymphoma mouse model” value is “uptake in the tumor, spleen, and bone marrow”.
